Assay results as given in patent publication US6166033A, “2-carbonylthiazole derivatives and use of the same” (priority 1996, dated 2000).
Where a name gives a salt, the structure may show the parent alone.

Assays:
human D4.2 receptor = biological target: T1, human D4.2 receptor (Homo sapiens, UniProt P21917, DEL265-296); assay: Dopamine D4 receptor binding test ([3H] spiperone); conditions: human D4.2 receptor in CHO cell membrane; [3H] spiperone 0.5 nM; 2 hours at 27° C., pH 7.4
T1 construct: expressed in transfected cells; host or cells: Chinese hamster ovary (CHO) cells, membranes
T1 sequence (P21917 with tags, fused parts or gaps DEL265-296): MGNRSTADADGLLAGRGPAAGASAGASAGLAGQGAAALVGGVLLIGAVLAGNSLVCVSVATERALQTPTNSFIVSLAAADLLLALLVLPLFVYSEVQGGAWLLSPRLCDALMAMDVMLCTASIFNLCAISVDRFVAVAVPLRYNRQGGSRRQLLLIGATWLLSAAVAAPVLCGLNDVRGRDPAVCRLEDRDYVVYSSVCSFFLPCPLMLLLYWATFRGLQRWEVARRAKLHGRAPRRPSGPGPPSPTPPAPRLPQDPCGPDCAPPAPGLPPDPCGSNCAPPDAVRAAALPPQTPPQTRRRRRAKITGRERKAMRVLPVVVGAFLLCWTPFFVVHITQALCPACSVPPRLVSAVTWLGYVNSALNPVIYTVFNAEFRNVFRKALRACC
Method: 1. Dopamine D4 receptor binding test
Chinese hamster ovary (CHO) cell membrane, in which human D4.2 receptor was expressed, was used as a receptor sample.
[^3 H] Spiperone was used as a [^3 H]-labeled ligand.
The binding reaction using the [^3 H]-labeled ligand was carried out by the following method described in Eur. J. Pharmacol., 233, 173 (1993).
Human D4.2 receptor binding test: The CHO cell membrane, in which human D4.2 receptor has been expressed, [^3 H] spiperone (0.5 nM) and each test compound were allowed to undergo 2 hours of reaction at 27° C. in 50 mM Tris-HCl buffer (pH 7.4) containing 5 mM EDTA, 1.5 mM CaCl2, 5 mM KCl and 120 mM NaCl.
After completion of the reaction, the reaction solution was filtered by suction through a glass filter (GF/B), and radioactivity on the filter paper was measured using a liquid scintillation spectrometer.
The binding when the reaction was carried out in the presence of 10 μM haloperidol was defined as non-specific binding of [^3 H] spiperone, and the difference between total binding and non-specific binding was defined as specific binding. An inhibition curve was obtained by allowing a fixed concentration of [^3 H] spiperone to react with varied concentration of each compound to be tested under the aforementioned conditions, and the concentration of each test compound which inhibits 50% of the [^3 H] spiperone binding (IC50) was calculated from the inhibition curve, with the results shown in Table 3.

Dopamine D2 receptor = Dopamine D2 receptor (Rattus norvegicus, UniProt P61169); assay: Dopamine D2 receptor binding test ([3H] raclopride); conditions: rat striate body membrane; [3H] raclopride 1 nM; 1 hour at 25° C.
schizophrenia = conditions: clinical, literature, cited from earlier work
dopamine D4 receptor = conditions: literature; cited from earlier work
[1] = literature; cited from earlier work

Chain of Dopamine D2 receptor (P61169 whole entry): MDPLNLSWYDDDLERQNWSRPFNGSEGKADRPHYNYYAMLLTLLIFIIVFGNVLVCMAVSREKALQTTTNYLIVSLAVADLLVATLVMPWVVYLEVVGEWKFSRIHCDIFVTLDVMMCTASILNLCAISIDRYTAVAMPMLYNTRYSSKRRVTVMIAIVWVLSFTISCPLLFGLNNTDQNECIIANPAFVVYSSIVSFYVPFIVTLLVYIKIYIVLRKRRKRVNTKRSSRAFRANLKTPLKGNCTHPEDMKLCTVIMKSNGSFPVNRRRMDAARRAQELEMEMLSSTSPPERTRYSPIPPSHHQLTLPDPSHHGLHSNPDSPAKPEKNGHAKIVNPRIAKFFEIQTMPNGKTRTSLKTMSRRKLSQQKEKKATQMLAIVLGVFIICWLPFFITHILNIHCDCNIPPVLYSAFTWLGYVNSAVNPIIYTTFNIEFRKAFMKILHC

Row | Structure (SMILES) | IC50 (human D4.2 receptor) | IC50 (Dopamine D2 receptor) | efficacy in schizophrenia (schizophrenia) | extrapyramidal disorders (schizophrenia; unlike dopamine D2 receptor antagonists) | affinity for dopamine D4 receptor relative to dopamine D2 receptor (dopamine D4 receptor) | hemotoxicity [1]
1 | NC(=O)c1nc(-c2ccc(F)cc2)c(CCN2CCC(=Cc3ccc(F)cc3)CC2)s1 [Compound A-02] | 5.46 nM | ≥ 1000 nM |  |  |  | 
2 | CCOC(=O)c1nc(-c2ccc(F)cc2)c(CCN2CCC(=Cc3cccc(F)c3)CC2)s1 [Compound A-09, 2-ethoxycarbonyl-4-(4-fluorophenyl)-5-[2-[4-(3-fluorobenzylidene)piperidin-1-yl]ethyl]thiazole hydrochloride] | 13.9 nM | > 1000 nM |  |  |  | 
3 | NC(=O)c1nc(-c2ccc(F)cc2)c(CCN2CCC(=Cc3cccc(F)c3)CC2)s1 [Compound A-10, 2-carbamoyl-4-(4-fluorophenyl)-5-[2-[4-(3-fluorobenzylidene)piperidin-1-yl]ethyl]thiazole] | 4.53 nM | 559 nM |  |  |  | 
4 | CCOC(=O)c1nc(-c2ccc(F)cc2)c(CCN2CCC(C(=O)c3ccc(F)cc3)CC2)s1 [Compound A-21] | 3.43 nM | > 1000 nM |  |  |  | 
5 | Cc1ccc(C=C2CCN(CCc3sc(C(N)=O)nc3-c3ccc(F)cc3)CC2)cc1 [Compound A-15] | 18.3 nM | 433 nM |  |  |  | 
6 | NC(=O)c1nc(-c2ccc(F)cc2)c(CCN2CCC(=Cc3ccccc3)CC2)s1 [Compound A-13] | 3.13 nM | 143 nM |  |  |  | 
7 | CN1CCN(C2=Nc3cc(Cl)ccc3Nc3ccccc32)CC1 [Clozapine] |  |  | effective in drug-resistant schizophrenia and negative symptoms | causes less extrapyramidal disorders | higher than its affinity for dopamine D2 receptor | generates a hemotoxin as agranulocytosis which resulted in certain mortal cases
8 | Cc1ccc(-c2nc(C(N)=O)sc2CCN2CCC(=Cc3ccc(F)cc3)CC2)cc1 [Compound A-20] | 9.55 nM | 187 nM |  |  |  | 
9 | NC(=O)c1nc(-c2ccc(F)cc2)c(CCN2CCC(C(=O)c3ccc(F)cc3)CC2)s1 [Compound A-22] | 3.13 nM | 72.2 nM |  |  |  | 
10 | NC(=O)c1nc(-c2ccccc2)c(CCN2CCC(=Cc3ccc(F)cc3)CC2)s1 [Compound A-17] | 5.99 nM | 628 nM |  |  |  | 
11 | O=C(O)c1nc(-c2ccc(F)cc2)c(CCN2CCC(=Cc3cccc(F)c3)CC2)s1 [Compound A-11, 2-carboxylic acid-4-(4-fluorophenyl)-5-[2-[4-(3-fluorobenzylidene)piperidin-1-yl]ethyl]thiazole potassium salt] | 10.5 nM | ≥ 1000 nM |  |  |  | 
